Experimental data as given in US20140094465A1, “Compounds as S-Nitrosoglutathione Reductase Inhibitors” (N30 PHARMACEUTICALS, INC., priority 2011, published 2014).

Each molecule was assayed against T1, S-nitrosoglutathione reductase (GSNOR) (Homo sapiens, UniProt P11766) (assay: GSNOR assay (inhibition of GSNOR activity, NADH absorbance at 340 nm)). Details: GSNOR inhibitor activity, Tables 1-6; read-out: IC50 range.
T1 construct: made in house; host or cells: E. coli
Assay type: biochemical
Protocol: Various compounds were tested in vitro for their ability to inhibit GSNOR activity.
GSNOR expression and purification is described in Biochemistry 2000, 39, 10720-10729.
Pre-cultures were grown from stabs of a GSNOR glycerol stock in 2XYT media containing 100 ug/ml ampicillin after an overnight incubation at 37° C. […] GSNOR expression was induced with 0.1% arabinose in an overnight incubation at 20° C.
E. coli cell paste was lysed by nitrogen cavitation and the clarified lysate purified by Ni affinity chromatography on an AKTA FPLC (Amersham Pharmacia). The column was eluted in 20 mM Tris pH 8.0/250 mM NaCl with a 0-500 mM imidazole gradient. Eluted GSNOR fractions containing the Smt-GSNOR fusion were digested overnight with Ulp-1 at 4° C. to remove the affinity tag then re-run on the Ni column under the same conditions. GSNOR was recovered in the flowthrough fraction and for crystallography is further purified by Q-Sepharose and Heparin flowthrough chromatography in 20 mM Tris pH 8.0, 1 mM DTT, 10 uM ZnSO4.
GSNOR assay: GSNO and enzyme/NADH Solutions are made up fresh each day. The solutions are filtered and allowed to warm to room temperature. GSNO solution: 100 mM NaPO4 (pH 7.4), 0.480 mM GSNO. 396 μL of GSNO Solution is added to a cuvette followed by 8 μL of test compound in DMSO (or DMSO only for full reaction control) and mixed with the pipette tip. Compounds to be tested are made up at a stock concentration of 10 mM in 100% DMSO. 2 fold serial dilutions are done in 100% DMSO. 8 μL of each dilution are added to an assay so that the final concentration of DMSO in the assay is 1%. The concentrations of compounds tested range from 100 to 0.003 μM. Enzyme/NADH solution: 100 mM NaPO4 (pH 7.4), 0.600 mM NADH, 1.0 μg/mL GSNO Reductase. 396 μL of the Enzyme/NADH solution is added to the cuvette to start the reaction. The cuvette is placed in the Cary 3E UV/Visible Spectrophotometer and the change in 340 nm absorbance/min at 25° C. is recorded for 3 minutes. The assays are done in triplicate for each compound concentration. IC50's for each compound are calculated using the standard curve analysis in the Enzyme Kinetics Module of SigmaPlot.
Final assay conditions: 100 mM NaPO4, pH 7.4, 0.240 mM GSNO, 0.300 mM NADH, 0.5 μg/mL GSNO Reductase, and 1% DMSO. Final volume: 800 μL/cuvette.

T1 sequence (P11766 whole entry): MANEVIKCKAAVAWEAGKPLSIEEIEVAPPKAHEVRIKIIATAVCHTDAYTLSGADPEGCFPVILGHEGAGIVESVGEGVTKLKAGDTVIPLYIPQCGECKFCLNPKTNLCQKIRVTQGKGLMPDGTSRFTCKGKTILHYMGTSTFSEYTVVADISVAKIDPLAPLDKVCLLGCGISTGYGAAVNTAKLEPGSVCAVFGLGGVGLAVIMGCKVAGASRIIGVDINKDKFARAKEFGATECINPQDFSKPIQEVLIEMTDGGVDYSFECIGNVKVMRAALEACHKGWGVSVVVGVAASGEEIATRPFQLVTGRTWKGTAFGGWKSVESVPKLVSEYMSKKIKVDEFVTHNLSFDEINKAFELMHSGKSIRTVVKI

| IC50 | Structure (SMILES) |
| --- | --- |
| < 100 nM | Oc1ccc2nc(-c3ccc(-c4nn[nH]n4)cc3Cl)ccc2c1 [Compound I-23] |
| 100 to 1000 nM | O=C(C[C@H]1CC[C@H](C(=O)O)CC1)c1ccc(O)cc1O [VI-1, (trans)-4-(2-(2,4-dihydroxyphenyl)-2-oxoethyl)cyclohexanecarboxylic acid] |
| < 100 nM | O=C(O)c1ccc(CC(=O)c2ccc(O)c(F)c2F)c(F)c1 [VI-3, 4-(2-(2,3-difluoro-4-hydroxyphenyl)-2-oxoethyl)-3-fluorobenzoic acid] |
| < 100 nM | O=C(O)c1ccc(-c2nc3ccc(O)cc3nc2C(F)(F)F)c(Cl)c1 [II-8] |
| < 100 nM | O=C(O)C1CC=C(c2nc3ccc(O)cc3nc2C(F)(F)F)CC1 (centres unmarked) [II-12] |
| 100 to 1000 nM | CS(=O)(=O)NC(=O)c1ccc(-c2c(C(F)(F)F)oc3cc(O)ccc3c2=O)cc1 [IV-32] |
| < 100 nM | O=C(O)c1ccc(-c2cc(F)c3c(F)c(O)ccc3c2)c(F)c1 [III-40, 4-(4,5-difluoro-6-hydroxynaphthalen-2-yl)-3-fluorobenzoic acid] |
| 100 to 1000 nM | O=c1nc(-c2ccc(-c3ccc4cc(O)ccc4n3)cc2)[nH]s1 [Compound I-29] |
| 100 to 1000 nM | O=C(O)c1ccc(CC(=O)c2cc(F)c(O)cc2F)c(F)c1 [VI-7, 4-(2-(2,5-difluoro-4-hydroxyphenyl)-2-oxoethyl)-3-fluorobenzoic acid] |
| 100 to 1000 nM | Cc1oc2cc(O)ccc2c(=O)c1-c1ccc(C(=O)O)cc1 [IV-5] |
| < 100 nM | O=C(O)C1CCN(c2nc3ccc(O)cc3nc2C(F)(F)F)CC1 [II-11] |
| 1000 to 10000 nM | O=C(O)C1CCN(c2ncc3cc(O)ccc3n2)CC1 [II-7] |
| < 100 nM | O=C(O)c1ccc(-c2ccc3cc(O)ccc3n2)c(Br)c1 [Compound I-46, 3-bromo-4-(6-hydroxyquinolin-2-yl)benzoic acid] |
| < 100 nM | Cc1sc2cc(O)ccc2c(=O)c1-c1ccc(-c2nnn[nH]2)cc1 [IV-34] |
| 1000 to 10000 nM | O=C(O)c1ccc(Sc2c(C(F)(F)F)oc3cc(O)ccc3c2=O)cc1 [Compound V-11, 4-(7-hydroxy-4-oxo-2-(trifluoromethyl)-4H-chromen-3-ylthio)benzoic acid] |
| < 100 nM | N#Cc1cc(C(=O)O)ccc1-c1ccc2cc(O)ccc2c1 [III-6] |
| < 100 nM | O=C(O)c1ccc(CC(=O)c2ccc(O)cc2)c(F)c1 [VI-9, 3-fluoro-4-(2-(4-hydroxyphenyl)-2-oxoethyl)benzoic acid] |
| 100 to 1000 nM | O=C(O)c1ccc(NC(=O)c2ccc(O)cc2F)cc1 [VI-15, 4-(2-fluoro-4-hydroxybenzamido)benzoic acid] |
| < 100 nM | N#Cc1cc2cc(O)ccc2nc1-c1ccc(C(=O)O)cc1 [Compound I-52, 4-(3-cyano-6-hydroxyquinolin-2-yl)benzoic acid] |
| < 100 nM | Oc1ccc2nc(-c3ccc(-c4nn[nH]n4)cc3)cc(Cl)c2c1 [Compound I-11] |
| < 100 nM | O=C(O)c1ccc(-c2ccc3cc(O)ccc3n2)cc1F [Compound I-10] |
| < 100 nM | O=C(O)c1ccc(CS(=O)(=O)c2ccc(O)cc2)c(F)c1 [VI-26, 3-fluoro-4-(((4-hydroxyphenyl)sulfonyl)methyl)benzoic acid] |

| IC50 | Structure (SMILES) |
| --- | --- |
| 100 to 1000 nM | O=C(O)c1ccc(CC(=O)c2ccc(O)cc2)cc1 [VI-11, 4-(2-(4-hydroxyphenyl)-2-oxoethyl)benzoic acid] |
| < 100 nM | COc1cc(C(=O)O)ccc1-c1ncc2cc(O)ccc2n1 [II-5] |
| 1000 to 10000 nM | O=C(O)c1ccc(-c2ccc3cc(O)ccc3c2)nn1 [III-11] |
| < 100 nM | O=c1c(-c2ccc(O)c([N+](=O)[O-])c2)c(C(F)(F)F)oc2cc(O)ccc12 [IV-45, 7-hydroxy-3-(4-hydroxy-3-nitrophenyl)-2-(trifluoromethyl)-4H-chromen-4-one] |
| < 100 nM | O=C(O)c1ccc(CC(=O)c2ccc(O)cc2Cl)c(F)c1 [VI-6, 4-(2-(2-chloro-4-hydroxyphenyl)-2-oxoethyl)-3-fluorobenzoic acid] |
| 1000 to 10000 nM | O=C(O)c1ccc(-c2ccc3cc(O)ccc3c2)cn1 [III-4] |
| < 100 nM | O=c1nc(-c2ccc(-c3ccc4cc(O)ccc4n3)cc2)[nH]o1 [Compound I-12] |
| < 100 nM | O=C(O)c1ccc(-c2ncc3cc(O)ccc3n2)c(Cl)c1 [II-3] |
| < 100 nM | O=C(O)c1ccc(-c2ccc3cc(O)ccc3n2)c(C(F)(F)F)c1 [Compound I-30] |
| 1000 to 10000 nM | O=C(O)c1ccc(-c2ccc3cc(O)ccc3n2)s1 [Compound I-15] |
| < 100 nM | O=C(O)[C@H]1CC[C@H](c2nc3ccc(O)cc3cc2C(F)(F)F)CC1 [Compound I-43] |
| < 100 nM | O=C(O)c1ccc(-c2cc(F)c3cc(O)ccc3c2)cc1 [III-39, 4-(4-fluoro-6-hydroxynaphthalen-2-yl)benzoic acid] |
| 1000 to 10000 nM | O=c1c(Oc2ccc(-c3nnn[nH]3)cc2)c(C(F)(F)F)oc2cc(O)ccc12 [Compound V-6, 3-(4-(1H-tetrazol-5-yl)phenoxy)-7-hydroxy-2-(trifluoromethyl)-4H-chromen-4-one] |
| < 100 nM | O=C(O)c1ccc(/C(=C\C(F)(F)F)C(=O)c2ccc(O)cc2O)cc1 [VI-17, (E)-4-(1-(2,4-dihydroxyphenyl)-4,4,4-trifluoro-1-oxobut-2-en-2-yl)benzoic acid] |
| < 100 nM | O=C(O)c1ccc(-c2ccc3c(F)c(O)ccc3c2)c(F)c1 [III-32] |
| < 100 nM | O=C(O)c1ccc(-c2cc(F)c3cc(O)ccc3c2)c(F)c1 [III-38, 3-fluoro-4-(4-fluoro-6-hydroxynaphthalen-2-yl)benzoic acid] |
| < 100 nM | O=C(O)c1ccc(-c2nc3ccc(O)cc3nc2C(F)(F)F)c(F)c1 [II-26, 3-fluoro-4-(6-hydroxy-3-(trifluoromethyl)quinoxalin-2-yl)benzoic acid] |
| 1000 to 10000 nM | O=C(O)c1ccc(Oc2c(-c3ccc(Cl)cc3)oc3cc(O)ccc3c2=O)cc1 [Compound V-7, 4-(2-(4-chlorophenyl)-7-hydroxy-4-oxo-4H-chromen-3-yloxy)benzoic acid] |
| 100 to 1000 nM | O=C(O)c1ccc(COc2ccc(O)cc2F)c(F)c1 [VI-19, 3-fluoro-4-((2-fluoro-4-hydroxyphenoxy)methyl)benzoic acid] |
| 100 to 1000 nM | Oc1ccc2nc(C(F)(F)F)c(-c3ccc(-c4nnn[nH]4)cc3)nc2c1 [II-16] |
| 100 to 1000 nM | COc1cc(-c2ccc3cc(O)ccc3c2)ccc1C(=O)O [III-34, 4-(6-hydroxynaphthalen-2-yl)-2-methoxybenzoic acid] |
| < 100 nM | O=C(O)c1ccc(-c2ccc3c(F)c(O)ccc3n2)c(Cl)c1 [Compound I-57] |

Same assay, conditions: Table 7; GSNOR inhibition, IC50 range class a/b/c; read-out: IC50

| IC50 | Structure (SMILES) |
| --- | --- |
| 100 to 1000 nM | Cn1c(-c2ccc(O)cc2)ccc1-c1ccc(C(=O)O)s1 [VII-24, 5-(5-(4-hydroxyphenyl)-1-methyl-1H-pyrrol-2-yl)thiophene-2-carboxylic acid] |
| 100 to 1000 nM | O=C(O)c1ccc(-c2csc(-c3ccc(O)cc3)n2)cc1 [VII-2, 4-(2-(4-hydroxyphenyl)thiazol-4-yl)benzoic acid] |
| < 100 nM | CCCCCCn1c(-c2ccc(O)cc2)ccc1-c1ccc(C(=O)O)cc1 [VII-34, 4-(1-hexyl-5-(4-hydroxyphenyl)-1H-pyrrol-2-yl)benzoic acid] |
| < 100 nM | CC(C)CCn1c(-c2ccc(O)cc2)ccc1-c1ccc(C(=O)O)s1 [VII-27, 5-(5-(4-hydroxyphenyl)-1-isopentyl-1H-pyrrol-2-yl)thiophene-2-carboxylic acid] |
| 100 to 1000 nM | O=C(O)c1ccc(-c2ccc(-c3ccc(O)cc3F)s2)cc1 [VII-8, 4-(5-(2-fluoro-4-hydroxyphenyl)thiophen-2-yl)benzoic acid] |
| < 100 nM | O=C(O)c1ccc(-c2ccc(-c3ccc(O)c(F)c3)s2)s1 [VII-17, 5′-(3-fluoro-4-hydroxyphenyl)-[2,2′-bithiophene]-5-carboxylic acid] |
| < 100 nM | O=C(O)c1ccc(-c2cnc(-c3ccc(O)c(F)c3)s2)s1 [VII-10, 5-(2-(3-fluoro-4-hydroxyphenyl)thiazol-5-yl)thiophene-2-carboxylic acid] |
| < 100 nM | CC(C)CCn1c(-c2ccc(O)cc2)ccc1-c1ccc(C(=O)O)cc1 [VII-28, 4-(5-(4-hydroxyphenyl)-1-isopentyl-1H-pyrrol-2-yl)benzoic acid] |

Same assay, conditions: Table 8; GSNOR inhibition, IC50 range class a/b/c; read-out: IC50

| IC50 | Structure (SMILES) |
| --- | --- |
| < 100 nM | Cn1c(-c2ccc(C(=O)O)cc2)nc2ccc(O)cc2c1=O [VIII-10, 4-(6-hydroxy-3-methyl-4-oxo-3,4-dihydroquinazolin-2-yl)benzoic acid] |
